Experimental data: US20260055141A1, “COMPOSITIONS AND METHODS FOR CONTROLLING FOOD INTAKE, ENERGY EXPENDITURE, AND BODY WEIGHT FOR THE TREATMENT OF OBESITY AND METABOLIC DISEASES” (The Trustees of the University of Pennsylvania, priority 2022, published 2026)
Values joined by “and” are separate entries in the source; they are usually repeats but may differ in a detail not shown here. Equal entries are not always repeated. “Also recorded” adds a separate entry of the source. Non-standard residues stand in square brackets, D forms with d. No end group written: not given here.

Assays:
[1] = Circular dichroism (CD) spectroscopy, secondary structure; conditions: 40 μM in 0.5% saline
[2] = target: T1, human GPR75 (372-540 aa region) (Homo sapiens, UniProt O95800); assay: Surface Plasmon Resonance (SPR) binding at GPR75; conditions: for Bmax ([Signal (RU)]): SPR fit; for Kd / ka (1/(M*s)) / kd: SPR; for kon: read-out: ka (1/(M*s))
T1 construct: human GPR75 (372-540 aa region); purchased antibodies-online.com ABIN5709609
Experimental: SU75-36 binding at the human GPR75 (372-540 aa region; available on the world wide web at antibodies-online.com cat #ABIN5709609) was measured via a Nicoya Open SPR instrument using His-tagged GPR75 bound to an NTA-coated gold sensor (Nicoya cat #SEN-AU-100-10-NTA, range=4.08-204 μM) using HBSS (in-house) at 20 μL/min flow rate. Data was fit via a global, one-to-one model using Nicoya OpenSPR software.

[3] = Lateral intraventricular injection in HEPES buffer, food intake and body weight in DIO rats; format: in vivo, rat; conditions: lateral ventricle; for food intake compared to control: 60% HFD, 1, 3, 6, 24 h
Experimental: Diet induced obese (DIO) rats (n=4) were administered 150 μg/3 μL SU75-36 in a vehicle or in a HEPES buffer by lateral intraventricular injection and observed over 24 hours. One group of rats was administered a Vehicle of 50% DMSO in HEPES as a negative control. All rats were given ad libitum access to water and 60% HFD. […] (FIG. 10A). […] Rats were weighed at the beginning of the experiment and 24 hours after administration. The weight change of each rat after 24 hours was then calculated. […] (FIG. 10B). In a separate experiment, diet induced obese (DIO) rats (n=4) were administered 133 μg/2 μL SU75-37 in a HEPES buffer by lateral intraventricular injection and observed over 24 hours. One group of rats was administered a vehicle without a GPR75 inhibitor as a negative control. All rats were given ad libitum access to water and a 60% high fat diet (HFD). SU75-37 was optimized using an acetate salt precipitation rather than a TFA salt precipitation to maintain a neutral >4.5 pH in HEPES buffer solution. The food intake of each rat was observed 1, 3, 6, and 24 hours after administration. […] Rats were weighed at the beginning of the experiment and 24 hours after administration. The weight change of each rat after 24 hours was then calculated. […] (FIG. 11B).

[4] = target: T2, human GLP-1R (21-139aa region) (Homo sapiens, UniProt P43220); assay: Surface Plasmon Resonance (SPR) binding at hGLP-1R; conditions: for binding at hGLP-1R: Ex-4 positive and ODN negative control
T2 construct: human GLP-1R (21-139aa region); purchased rndsystems.com (R&D Systems) 10956-GL
Experimental: SU75-36, SU75-37, Ex-4, and ODN binding at the human GLP-1R (21-139aa region; available on the world wide web at rndsystems.com cat #10956-GL) was measured via a Nicoya Open SPR instrument using His-tagged hGLP-1R bound to an NTA-coated gold sensor (Nicoya cat #SEN-AU-100-10-NTA) using HBSS (in-house) at 20 μL/min flow rate. Data was fit via a global, one-to-one model using Nicoya OpenSPR software. In-house Ex-4 and ODN were used as the positive and negative controls, respectively.

[5] = 4th ventricle intracerebroventricular injection, food intake and body weight in DIO rats; format: in vivo, rat; conditions: for food intake compared to control: SU75-36 20, 100 or 200 μg, SU75-37 20 μg, 60% HFD, 1, 3, 6, 24 h
Experimental: Adult male Sprague-Dawley rats (Charles River) were individually housed under a 12 h-light: 12 h-dark cycle in a temperature and humidity-controlled satellite vivarium and had ad libitum access to water and chow (5001, LabDiet) or a 60% high fat diet (HFD): D12492, Research Diets) and when applicable had ad libitum access to kaolin pellets (K50001, Research Diets). Rats were exposed to kaolin for at least 5 days prior to measuring kaolin consumption in pica testing. Except for studies conducted in the bioDAQ, for all feeding studies rats were housed in hanging wire cages to allow for accurate measurement of food spillage. Experiments were conducted under the National Institutes for Health Guide for the Care and Use of Laboratory Animals and all procedures were approved by the Institutional Animal Care and Use Committee at the University of Pennsylvania.
For cannula implantation, rats were anesthetized by intraperitoneal injection of a mixture containing ketamine (90 mg/kg, Butler Animal Health Supply), xylazine (2.7 mg/kg, Anased), and acepromazine (0.64 mg/kg, Butler Animal Health Supply) (KAX) and then placed into a stereotaxic apparatus. Each rat was stereotaxically implanted with a guide cannula (26-ga, Plastics One) aimed at the fourth ventricle (guide cannula coordinates: on midline. 2.5 mm anterior to occipital suture, 5.2 mm ventral to skull; internal cannula aimed 7.2 mm ventral to skull) or the lateral ventricle (guide cannula coordinates: 1.5 mm lateral to midline, 0.9 mm posterior to bregma. 1.8 mm ventral to skull; internal cannula aimed 3.8 mm ventral to skull). For all cannulas, dummies (no projection beyond guide) were inserted in the guide cannula and left until infusions were performed. For all surgeries, rats received post-operative temperature support and analgesia was provided immediately following surgery and for two post-operative days (2 mg/kg meloxicam).
For all studies measuring food intake following drug treatment, central injections were given at a volume of 2 μL using a Hamilton syringe terminating in an injector tip extending 2.0 mm beyond the guide cannula. For acute treatment days, rats were food deprived for 2 hours before the dark cycle and injections were done immediately prior to the dark cycle onset. Food and kaolin intake was measured 1, 3, 6, and 24 hours after injections were completed and food crumbs were weighed and accounted for between each timepoint. Body weight was measured during injections and 24 hours after. Injection treatments were organized in a counterbalanced, within-subjects design and separated by ≥72 h. […]
Rats were weighed at the beginning of the experiment and 24 hours after administration of the GPR75 inhibitor. The weight change of each rat after 24 hours was then calculated. […]

[6] = His-tagged GPR75 on NTA sensor, HBSS, global one-to-one fit

## TFTSDLSKYLEEEVREFIWLKNGGPSDVNTDRPGLLDLK-NH2 [SU75-37]
[1]
  secondary structure (folded state) from CD spectra: typical α-helix
[2]; curve at 4.9 μM peptide
  Bmax ([Signal (RU)]): 3.80 RU
[2]; curve at 4.93 μM peptide
  Bmax ([Signal (RU)]): 3.57 RU
[2]; curve at 12.3 μM peptide, listed as Drug37
  Bmax ([Signal (RU)]): 11.98 RU and 9.39 RU
[2]; curve at 24.65 μM peptide
  Bmax ([Signal (RU)]): 8.98 RU
[2]; curve at 49.3 μM peptide, listed as Drug37
  Bmax ([Signal (RU)]): 47.66 RU and 51.69 RU
[2]; curve at 92.4 μM peptide
  Bmax ([Signal (RU)]): 67.67 RU
[2]; curve at 123.23 μM peptide
  Bmax ([Signal (RU)]): 110.32 RU
[2]; [6]
  Kd: 23.8 µM
[2]; one-to-one model, global fit
  ka (1/(M*s)): 592 M⁻¹ s⁻¹
  kd: 0.0141 s⁻¹
[2]
  kon: 592 M⁻¹ s⁻¹
[3]; 133 μg/2 μL in HEPES buffer, acetate salt precipitation, DIO rats
  food intake compared to control: significant decrease in food intake
[3]; 133 μg/2 μL in HEPES buffer, DIO rats
  body weight change after 24 hours: significant decrease in weight
[3]; 150 μg/3 μL in HEPES buffer, male HFD fed rats (FIG. 11 legend)
  24 h food intake: suppresses
[4]
  binding at hGLP-1R: did not bind; also recorded: does not bind
[5]
  food intake compared to control: significant decrease in food intake

## H[dS]QGTFTSDLSKYLEEEVREFIWLKNGGPSDVNTDRPGLLDLK-NH2 [SU75-36]
[1]
  secondary structure (folded state) from CD spectra: typical α-helix
[2]; curves at 10.2-102 μM peptide
  Bmax ([Signal (RU)]): 69.54 RU
[2]; [6]
  Kd: 7.76 µM
[2]; Nicoya OpenSPR software, one-to-one model, global fit
  Kd: 7.73 µM
[2]; one-to-one model, global fit
  kd: 0.00742 s⁻¹
[2]; one-to-one model, global fit, listed as Drug 36
  ka (1/(M*s)): 956 M⁻¹ s⁻¹
[2]
  kon: 956 M⁻¹ s⁻¹
[3]; 150 μg/3 μL in HEPES buffer, DIO rats
  food intake compared to any of the other groups: further decrease
[3]; 150 μg/3 μL in vehicle (50% DMSO in HEPES) or HEPES buffer, DIO rats
  food intake compared to control: significant decrease in food intake
[3]; 150 μg/3 μL in vehicle (50% DMSO in HEPES) or HEPES buffer, DIO rats, listed as 36
  food intake compared to control: suppresses
[3]; 150 μg/3 μL with HEPES buffer, DIO rats
  body weight change after 24 hours compared to any other of the groups: further decrease
[3]; 150 μg/3 μL, DIO rats
  body weight change after 24 hours: significant decrease in weight
[4]
  binding at hGLP-1R: poor binding
[4]; His-tagged hGLP-1R on NTA sensor, HBSS
  Kd: 182 µM
[5]; 200 μg, 60% HFD
  food intake compared to any of the other groups: further decrease
[5]
  food intake compared to control: significant decrease in food intake
[5]; any amount (20, 100, 200 μg), 60% HFD
  body weight change after 24 hours: significant decrease in weight
